Data published in US10150760B2, “Compounds for use in preparing heterocyclic triazole agonists of the APJ receptor” (AMGEN INC., priority 2016, dated 2018).
pEC50: −log10 of the molar value.

Each substance was assayed against human APJ receptor (Homo sapiens (Human), UniProt P35414) (assay: [35S]GTPγS binding assay on membranes from CHO cells stably expressing human APJ receptor). Settings: read-out: Activity hAPJ SPA EC50 IP.
Type: biochemical
How it was run: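 Membranes from CHO cells stably expressing human APJ incubated with ligand, 0.2 nM [35S]GTPγS and WGA SPA beads in HEPES pH 7.5 with 5 mM MgCl2, 200 mM NaCl, 3 μM GDP, 90 min at RT. Nonspecific binding defined with 100 μM GTPγS; EC50 by non-linear regression.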

Sequence of human APJ receptor (P35414 whole entry): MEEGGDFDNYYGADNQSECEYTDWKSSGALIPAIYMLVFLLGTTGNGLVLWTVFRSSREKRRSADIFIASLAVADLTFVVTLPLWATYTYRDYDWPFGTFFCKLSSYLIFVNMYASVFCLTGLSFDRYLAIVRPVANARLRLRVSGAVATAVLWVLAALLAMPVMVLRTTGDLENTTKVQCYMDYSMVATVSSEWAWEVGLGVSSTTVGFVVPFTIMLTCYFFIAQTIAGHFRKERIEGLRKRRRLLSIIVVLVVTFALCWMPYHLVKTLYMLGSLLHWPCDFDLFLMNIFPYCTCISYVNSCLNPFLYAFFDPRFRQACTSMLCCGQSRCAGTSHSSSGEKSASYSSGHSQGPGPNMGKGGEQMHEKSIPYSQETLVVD

In order of rising pEC50:
1. (2S,3R)-3-(5-chloropyrimidin-2-yl)-N-(4-(3,5-dibromo-2,6-dimethoxyphenyl)-5-((R)-tetrahydrofuran-3-yl)-4H-1,2,4-triazol-3-yl)butane-2-sulfonamide or (2S,3R)-3-(5-chloropyrimidin-2-yl)-N-(4-(3,5-dibromo-2,6-dimethoxyphenyl)-5-((S)-tetrahydrofuran-3-yl)-4H-1,2,4-triazol-3-yl)butane-2-sulfonamide [Example 331.0]  5.46
2. (2S,3R)-N-(4-(2,6-dimethoxyphenyl)-5-((R)-1,1-dioxidotetahydrothiophen-3-yl)-4H-1,2,4-triazol-3-yl)-3-(5-methylpyrimidin-2-yl)butane-2-sulfonamide or (2S,3R)-N-(4-(2,6-dimethoxyphenyl)-5-((S)-1,1-dioxidotetrahydrothiophen-3-yl)-4H-1,2,4-triazol-3-yl)-3-(5-methylpyrimidin-2-yl)butane-2-sulfonamide [Example 184.0]  5.86
3. (2S,3R)-N-(4-(2,6-dimethoxyphenyl)-5-((R)-1,1-dioxidotetrahydrothiophen-3-yl)-4H-1,2,4-triazol-3-yl)-3-(5-methylpyrimidin-2-yl)butane-2-sulfonamide or (2S,3R)-N-(4-(2,6-dimethoxyphenyl)-5-((S)-1,1-dioxidotetrahydrothiophen-3-yl)-4H-1,2,4-triazol-3-yl)-3-(5-methylpyrimidin-2-yl)butane-2-sulfonamide [Example 183.0]  5.97
4. (2S,3R)-3-(5-chloropyrimidin-2-yl)-N-(4-(2,6-dimethoxyphenyl)-5-((R)-3-oxoisoindolin-1-y1)-4H-1,2,4-triazol-3-yl)butane-2-sulfonamide or (2S,3R)-3-(5-chloropyrimidin-2-yl)-N-(4-(2,6-dimethoxyphenyl)-5-((S)-3-oxoisoindolin-1-yl)-4H-1,2,4-triazol-3-yl)butane-2-sulfonamide [Example 235.0]  6.08
5. (2S,3R)-N-(4-(1,3-dimethoxy-2-propanyl)-5-((2R,5R)-5-methyltetrahydro-2-furanyl)-4H-1,2,4-triazol-3-yl)-3-(5-methoxy-2-pyrimidinyl)-2-butanesulfonamide or (2S,3R)-N-(4-(1,3-dimethoxy-2-propanyl)-5-((2S,5S)-5-methyltetrahydro-2-furanyl)-4H-1,2,4-triazol-3-yl)-3-(5-methoxy-2-pyrimidinyl)-2-butanesulfonamide [Example 370.0]  6.21
6. (2S,3R)-N-(4-(2,6-difluorophenyl)-5-((3S)-tetrahydro-2H-pyran-3-yl)-4H-1,2,4-triazol-3-yl)-3-(5-methyl-2-pyrimidinyl)-2-butanesulfonamide or (2S,3R)-N-(4-(2,6-difluorophenyl)-5-((3R)-tetrahydro-2H-pyran-3-yl)-4H-1,2,4-triazol-3-yl)-3-(5-methyl-2-pyrimidinyl)-2-butanesulfonamide [Example 22.0]  6.59
7. (2S,3R)-3-(5-chloropyrimidin-2-yl)-N-(4-(2,6-dimethoxyphenyl)-5-((S)-3-oxoisoindolin-1-yl)-4H-1,2,4-triazol-3-yl)butane-2-sulfonamide or (2S,3R)-3-(5-chloropyrimidin-2-yl)-N-(4-(2,6-dimethoxyphenyl)-5-((R)-3-oxoisoindolin-1-yl)-4H-1,2,4-triazol-3-yl)butane-2-sulfonamide [Example 234.0]  6.64
8. (2S,3R)-N-(4-(2,6-difluorophenyl)-5-((3R)-tetrahydro-3-furanyl)-4H-1,2,4-triazol-3-yl)-3-(5-methyl-2-pyrimidinyl)-2-butanesulfonamide or (2S,3R)-N-(4-(2,6-difluorophenyl)-5-((3S)-tetrahydro-3-furanyl)-4H-1,2,4-triazol-3-yl)-3-(5-methyl-2-pyrimidinyl)-2-butanesulfonamide [Example 20.0]  6.80
9. (2S,3R)-N-(4-(1,3-dimethoxy-2-propanyl)-5-((2R,5R)-5-methyltetrahydro-2-furanyl)-4H-1,2,4-triazol-3-yl)-3-(5-methoxy-2-pyrazinyl)-2-butanesulfonamide or (2S,3R)-N-(4-(1,3-dimethoxy-2-propanyl)-5-((2S,5S)-5-methyltetrahydro-2-furanyl)-4H-1,2,4-triazol-3-yl)-3-(5-methoxy-2-pyrazinyl)-2-butanesulfonamide [Example 376.0]  6.92
10. (2S,3R)-N-(4-(2,6-difluorophenyl)-5-((3R)-tetrahydro-3-furanyl)-4H-1,2,4-triazol-3-yl)-3-(5-methyl-2-pyrimidinyl)-2-butanesulfonamide or (2S,3R)-N-(4-(2,6-difluorophenyl)-5-((3S)-tetrahydro-3-furanyl)-4H-1,2,4-triazol-3-yl)-3-(5-methyl-2-pyrimidinyl)-2-butanesulfonamide [Example 21.0]  6.96
11. (2S,3R)-N-(4-(2,6-difluorophenyl)-5-((3S)-tetrahydro-2H-pyran-3-yl)-4H-1,2,4-triazol-3-yl)-3-(5-methyl-2-pyrimidinyl)-2-butanesulfonamide or (2S,3R)-N-(4-(2,6-difluorophenyl)-5-((3R)-tetrahydro-2H-pyran-3-yl)-4H-1,2,4-triazol-3-yl)-3-(5-methyl-2-pyrimidinyl)-2-butanesulfonamide [Example 23.0]  6.96
12. (2S,3R)-N-(4-(1,3-dimethoxy-2-propanyl)-5-((2R,5R)-5-methyltetrahydro-2-furanyl)-4H-1,2,4-triazol-3-yl)-3-(5-fluoro-2-pyrimidinyl)-2-butanesulfonamide or (2S,3R)-N-(4-(1,3-dimethoxy-2-propanyl)-5-((2S,5S)-5-methyltetrahydro-2-furanyl)-4H-1,2,4-triazol-3-yl)-3-(5-fluoro-2-pyrimidinyl)-2-butanesulfonamide [Example 368.0]  7.00
13. (2S,3R)-3-(5-chloropyrimidin-2-yl)-N-(4-(4,6-dimethoxypyrimidin-5-yl)-5-((R)-5,5-dimethyltetrahydrofuran-3-yl)-4H-1,2,4-triazol-3-yl)butane-2-sulfonamide or (2S,3R)-3-(5-chloropyrimidin-2-yl)-N-(4-(4,6-dimethoxypyrimidin-5-yl)-5-((S)-5,5-dimethyltetrahydrofuran-3-yl)-4H-1,2,4-triazol-3-yl)butane-2-sulfonamide [Example 317.0]  7.28
14. (2S,3R)-N-(4-(2,6-bis((tridutero)methyloxy)phenyl)-5-((3R)-tetrahydro-3-furanyl)-4H-1,2,4-triazol-3-yl)-3-(5-chloro-2-pyrimidinyl)-2-butanesulfonamide or (2S,3R)-N-(4-(2,6-bis((trideutero)methyloxy)phenyl)-5-((3S)-tetrahydro-3-furanyl)-4H-1,2,4-triazol-3-yl)-3-(5-chloro-2-pyrimidinyl)-2-butanesulfonamide [Example 392.0]  7.60
15. (2S,3R)-N-(4-(1,3-dimethoxy-2-propanyl)-5-((2R,5R)-5-methyltetrahydro-2-furanyl)-4H-1,2,4-triazol-3-yl)-3-(5-methoxy-2-pyrazinyl)-2-butanesulfonamide or (2S,3R)-N-(4-(1,3-dimethoxy-2-propanyl)-5-((2S,5S)-5-methyltetrahydro-2-furanyl)-4H-1,2,4-triazol-3-yl)-3-(5-methoxy-2-pyrazinyl)-2-butanesulfonamide [Example 377.0]  7.62
16. (2S,3R)-N-(4-(1,3-dimethoxy-2-propanyl)-5-((2R,5R)-5-methyltetrahydro-2-furanyl)-4H-1,2,4-triazol-3-yl)-3-(5-fluoro-2-pyrimidinyl)-2-butanesulfonamide or (2S,3R)-N-(4-(1,3-dimethoxy-2-propanyl)-5-((2S,5S)-5-methyltetrahydro-2-furanyl)-4H-1,2,4-triazol-3-yl)-3-(5-fluoro-2-pyrimidinyl)-2-butanesulfonamide [Example 369.0]  7.68
17. (2S,3R)-N-(4-(1,3-dimethoxy-2-propanyl)-5-((2R,5R)-5-methyltetrahydro-2-furanyl)-4H-1,2,4-triazol-3-yl)-3-(5-methoxy-2-pyrimidinyl)-2-butanesulfonamide or (2S,3R)-N-(4-(1,3-dimethoxy-2-propanyl)-5-((2S,5S)-5-methyltetrahydro-2-furanyl)-4H-1,2,4-triazol-3-yl)-3-(5-methoxy-2-pyrimidinyl)-2-butanesulfonamide [Example 371.0]  7.82
18. (2S,3R)-N-(4-(2,6-bis((trideutero)methyloxy)phenyl)-5-((3R)-tetrahydro-3-furanyl)-4H-1,2,4-triazol-3-yl)-3-(5-chloro-2-pyrimidinyl)-2-butanesulfonamide or (2S,3R)-N-(4-(2,6-bis((trideutero)methyloxy)phenyl)-5-((3S)-tetrahydro-3-furanyl)-4H-1,2,4-triazol-3-yl)-3-(5-chloro-2-pyrimidinyl)-2-butanesulfonamide [Example 391.0]  7.82
19. (2S,3R)-3-(5-chloropyrimidin-2-yl)-N-(4-(4,6-dimethoxypyrimidin-5-yl)-5-((R)-5,5-dimethyltetrahydrofuran-3-yl)-4H-1,2,4-triazol-3-yl)butane-2-sulfonamide or (2S,3R)-3-(5-chloropyrimidin-2-yl)-N-(4-(4,6-dimethoxypyrimidin-5-yl)-5-((S)-5,5-dimethyltetrahydrofuran-3-yl)-4H-1,2,4-triazol-3-yl)butane-2-sulfonamide [Example 318.0]  7.89
20. (2S,3R)-N-(4-(2,6-dimethoxyphenyl)-5-((R)-1,4-dioxan-2-yl)-4H-1,2,4-triazol-3-yl)-3-(5-methoxypyrazin-2-yl)butane-2-sulfonamide or (2S,3R)-N-(4-(2,6-dimethoxyphenyl)-5-((S)-1,4-dioxan-2-yl)-4H-1,2,4-triazol-3-yl)-3-(5-methoxypyrazin-2-yl)butane-2-sulfonamide [Example 207.0]  8.32
